These results are taken from patent US5284850A, “Terpene amino alcohols and medicinal uses thereof” (Kuraray Co., Ltd., priority 1985, dated 1994).

Structures can show the parent of a compound that is named as a salt.

For one data set, the system named is CO2 -treated mice. As to the kind of experiment: Effect of improving the memories of amnesia models: CO2-induced amnesia, latency. In kind it is in vivo, mice of ddK strain. The settings on record: 100 mg/kg oral. The source says:
(§1) The mice were allowed to take feeds and water freely. The device comprised a dark chamber (a rectangular box 20 cm high, with a floor grid, 12 cm×15 cm) and a bright chamber (a box with an open top and a floor grid, 15 cm×15 cm, surrounded by rectangular walls, 15 cm^w ×20 cm^H, on four sides). The two chambers were in contact with each other sharing a common surface of 15 cm×20 cm which is provided with an opening through which the mouse could move freely. A stainless steel wire, which was connected to an electric impulse apparatus (manufactured by Nippon Medical and Chemical Instruments Co., Ltd.), was placed on the floor grid in the dark chamber. The bright chamber was illuminated with a 60 W electric bulb from a height of about 45 cm above the floor grid. Each mouse was placed on the floor grid in the bright chamber. Immediately after the mouse (four limbs) entered the dark chamber, it was loaded with an electroshock cf DC 50 V through the floor grid for about three seconds. Immediately after electroshock loading, the mouse was taken out from the dark chamber. […] Immediately after the acquisition trials, each mouse was left in a container filled with carbon dioxide for a period of 8 seconds to induce amnesia. A 5% aqueous suspension of each test compound in gum arabic solution was administered orally to mice immediately after carbon dioxide loading or to mice immediately after completion of the acquisition trials following scopolamine administration.

In a further data set the test system is Scopolamine-treated mice. As to the kind of experiment: Effect of improving the memories of amnesia models: scopolamine-induced amnesia, latency. The format is in vivo, mice of ddK strain. The conditions noted are these: 100 mg/kg oral; for improvement of shortening of latency induced by scopolamine (in words): compared with calcium hopantenate and pramiracetam.
Text: as §1, with “Scopolamine, […],” for “Immediately after the acquisition trials, each mouse”, “administered intraperitoneally to mice” for “left in a container filled with carbon dioxide for a period of 8 seconds”, “amnesia 20 minutes before initiation of acquisition trials.” for “amnesia.”

Data set [1] has as its system sensitized bronchial muscle. As to the kind of experiment: Antiallergic action: inhibition of egg albumin-induced contraction of sensitized guinea pig bronchial muscle. The format is tissue-based, guinea pigs of Hartley strain. The conditions noted are these: Cavia porcellus; for inhibition at 10 µM: 10^-5 M; for inhibition at 1 µM: 10^-6 M; for inhibition at 0.1 µM: 10^-7 M; for inhibition at 0.01 µM: 10^-8 M; for inhibition at 100 µM: 10^-4 M. How it is done:
Male guinea pigs of Hartley strain (body weight: about 250 g) were intraperitoneally or intramuscularly dosed with egg albumin (dose 100 mg/kg) and the same procedure was repeated after 3 days. After 3 to 4 weeks, the guinea pi-as were bled to death and the sensitized bronchial muscle was excised and cut into 1.5 mm thick rings. Three rings were joined to prepare a specimen. The specimen was suspended in a tissue bath and a load of 1 g was applied. […] After stabilization of the specimen (after about 1 hour), histamine hydrochloride was added to the bath at a final concentration of 10^-5 M. The contraction curve was recorded. After the contraction had been stabilized, the specimen was washed with 3 portions of Ringer's solution at 10-minute intervals to stabilize the contraction (about 1 hour was required). Then, the test compound was added to the tissue bath and, after an interval of 10 minutes, 5 mg/ml of egg albumin was added. The contraction amplitude of the specimen was measured and the percent inhibition was calculated according to the following formula. [formula] A: Contraction amplitude of control group when egg albumin is added A': Contraction amplitude of dosage group when egg albumin is added
H: Contraction amplitude of control group when histamine hydrochloride is added
H': Contraction amplitude of dosage group when histamine hydrochloride is added

In a further data set the test system is mice of ddK strain. Briefly: KCN anoxia test. The format is in vivo. The settings on record: for Number of survivals/Number of mice used / Survival rate (%): 100 mg/kg i.p., KCN 2.65 mg/kg i.v. after 30 minutes, 180 seconds; for Number of survivals/Number of mice used: control 0/8; for Survival rate (%): control 0, *P < 0.05, **P < 0.01; for anti-anoxic action (in words): KCN anoxia test.

For data set [2] the following is noted: cited from earlier work; for side effects: prior art.
[3] abbreviates: CO2-treated control 106.5 ± 24.9, normal mice 394.2 ± 84.0.
Setting [4] is: scopolamine-treated control 83.5 ± 21.5, normal mice 394.2 ± 84.0.
The mark [5] stands for this setting: CO2-treated control 37.6 ± 19.6.
Where [6] appears, read: scopolamine-treated control 54.6 ± 14.5.

With `CC(C)N(CCNC(=O)CN1CCCC1=O)C(C)C` [Pramiracetam, pramiracetam, reference compound], the “memory activating action, CO2-induced amnesia (in words)” value (“memory activating action” for short) in the data set with CO2 -treated mice is given as “failed to show a significant memory activating action”. Further, the “Latency, Mean ± S.E.” value in the data set with CO2 -treated mice (setting [3]) is 175.8 ± 42.9 s; in the data set with Scopolamine-treated mice (setting [4]) it was 98.1 ± 24.9 s.
Usually inhibition stands for the change of the read-out against control, counted positive when it falls. Take `CC(C)CCCC(C)CCCC(C)CCCC(C)(O)C(O)CN(C)CCO` (centres unmarked) [Compound (35)]: in data set [1], the inhibition at 10 µM was found to be 27.1%, the inhibition at 1 µM is 85.5%, the inhibition at 0.1 µM is 35% and the inhibition at 0.01 µM stood at 22%. In the data set on CO2 -treated mice, the “memory activating action” value is on record as “showed a tendency to activate memory”. In addition, the “Latency, Mean ± S.E.” value with CO2 -treated mice (CO2-treated control 138.2 ± 43.6, normal mice 382.4 ± 83.6) came to 258.4 ± 94.5 s. Further, in the data set with Scopolamine-treated mice, the “improvement of shortening of latency induced by scopolamine (in words)” value was “significantly improved the shortening of latency induced by scopolamine”. Besides, the “Latency, Mean ± S.E.” value with Scopolamine-treated mice (scopolamine-treated control 169.0 ± 53.0, normal mice 382.4 ± 83.6) was 320.2 ± 66.2 s. In the data set with mice of ddK strain, the “Number of survivals/Number of mice used” value is on record as 8/9, the “Survival rate (%)” value stood at 88.9% and the “anti-anoxic action (in words)” value was “significantly high anti-anoxic action”.
In the case of `CC(C)CCCC(C)CCCC(C)(O)C(O)CN(C)C(=O)c1cccnc1` (centres unmarked) [Compound (15), N-methyl-N-(3,7,11-trimethyl-2,3-hydroxydodecyl)nicotinamide], in data set [1], the inhibition at 100 µM came out at 72.5%, the inhibition at 10 µM is 67% and the inhibition at 1 µM turned out to be 93%. Moreover, the “memory activating action” value in the data set with CO2 -treated mice is on record as “showed a tendency to activate memory”. For the same molecule, the “Latency, Mean ± S.E.” value with CO2 -treated mice (setting [5]) came to 163.9 ± 49.1 s. The “Latency, Mean ± S.E.” value in the data set with Scopolamine-treated mice (setting [6]) was determined as 65.2 ± 20.2 s. Also, in the data set on mice of ddK strain, the “Number of survivals/Number of mice used” value was 7/9, the “Survival rate (%)” value stood at 77.8% and the “anti-anoxic action (in words)” value is “significantly high anti-anoxic action”.
For `CC(C)CCCC(C)NC(C)C` (centres unmarked) [Iproheptine hydrochloride, iproheptine hydrochloride], the side effects entry in data set [2] was “drowsiness and nausea”.
Turning to `CN1CCC(=C2c3ccccc3CC(=O)c3sccc32)CC1` [Ketotifen, ketotifen], the “time until antiallergic effect manifests itself” value in data set [2] (delayed effect type) is given as 4-6 weeks. In addition, the side effects entry in data set [2] was “drowsiness”.
Take `CC(C)(CO)[C@@H](O)C(=O)NCCCC(=O)O` [Calcium hopantenate, calcium hopantenate, reference compound]: the “memory activating action” value in the data set on CO2 -treated mice is on record as “failed to show a significant memory activating action”. The “Latency, Mean ± S.E.” value in the data set on CO2 -treated mice (setting [3]) came to 115.5 ± 40.6 s; in the data set on Scopolamine-treated mice (setting [4]), 80.5 ± 17.2 s.
For `CC(C)CCCC(C)CCCC(C)CCCC(C)(O)C(O)CN(C)CCOC(=O)c1cccnc1` (centres unmarked) [Compound (36), 2-[N-(2,3-dihydroxy-3,7,11,15-tetramethylhexadecyl)-N-methylamino]ethyl nicotinate], the inhibition at 10 µM in data set [1] was determined as 45%. Also, the inhibition at 1 µM in data set [1] came out at 20%. Further, the inhibition at 0.1 µM in data set [1] amounted to 8%. Also, in the data set with CO2 -treated mice, the “memory activating action” value was “very significantly improved the shortening of latency induced by carbon dioxide”. Moreover, the “Latency, Mean ± S.E.” value in the data set with CO2 -treated mice (setting [5]) turned out to be 216.0 ± 69.0 s; in the data set with CO2 -treated mice (CO2-treated control 139.4 ± 27.5, normal mice 375.7 ± 74.9, *P < 0.05) it was 336.6 ± 77.8 s; in the data set on Scopolamine-treated mice (setting [6]), 78.5 ± 26.9 s; in the data set on Scopolamine-treated mice (scopolamine-treated control 166.7 ± 36.7, normal mice 375.7 ± 74.9, *P < 0.05) it was 336.2 ± 55.4 s. Besides, in the data set with Scopolamine-treated mice, the “improvement of shortening of latency induced by scopolamine (in words)” value was “significantly improved the shortening of latency induced by scopolamine”.
With `CC(C)CCCC(C)CCCC(C)CCCC(C)(O)C(CO)N(C)CCO` (centres unmarked) [Compound (73)], in data set [1], the inhibition at 10 µM is 36%, the inhibition at 1 µM was 58%, the inhibition at 0.1 µM was 47% and the inhibition at 0.01 µM was found to be 21%.
`CC(C)CCCC(C)CCCC(C)(O)C(O)CNc1ccncc1` (centres unmarked) [Compound (20)]: in data set [1], the inhibition at 1 µM came out at 71%, the inhibition at 0.1 µM was 40% and the inhibition at 0.01 µM stood at 15%.
For the molecule `CC(C)CCCC(C)CCCC(C)(O)C(O)CNCCO` (centres unmarked) [Compound (14)], in data set [1], the inhibition at 10 µM was 48.7% and the inhibition at 1 µM came to 51.4%.
As to `CC(C)=CCCC(C)(O)C(O)CN(C)c1ccccc1` (centres unmarked) [(2)], in data set [1], the inhibition at 100 µM is 58.7%, the inhibition at 10 µM stood at 30.1% and the inhibition at 1 µM was found to be 19.9%.
Regarding `CNC(CO)C(C)(O)CCCC(C)CCCC(C)C` (centres unmarked) [Compound (62)], in data set [1], the inhibition at 10 µM was found to be 39%, the inhibition at 1 µM is 35% and the inhibition at 0.1 µM amounted to 12%.
Turning to `CC(C)CCCC(C)CCCC(C)(O)C(O)CNc1ccc(O)cc1` (centres unmarked) [Compound (19)], in data set [1], the inhibition at 10 µM was found to be 43%, the inhibition at 1 µM was found to be 54% and the inhibition at 0.1 µM is 33%.
Take `CC(C)CCCC(C)CCCC(C)(O)C(O)CN1CCSCC1` (centres unmarked) [Compound (26)]: in data set [1], the inhibition at 10 µM was determined as 50%, the inhibition at 1 µM worked out at 39% and the inhibition at 0.1 µM came to 18%.
For the molecule `CC(C)CCCC(C)(O)CCCC(C)(O)C(C)N(C)Cc1ccccc1` (centres unmarked) [Compound (71), 2-(benzylmethylamino)-3,7,11-trimethyl-3,7-dodecanediol], in data set [1], the inhibition at 1 µM turned out to be 37% and the inhibition at 0.1 µM stood at 46%.
Consider `CC(C)=CCCC(C)(O)C(CO)N1CCCC1` (centres unmarked) [Compound (54)], for which, in data set [1], the inhibition at 10 µM turned out to be 54%, the inhibition at 1 µM was determined as 63%, the inhibition at 0.1 µM came out at 33% and the inhibition at 0.01 µM stood at 20%.
Take `CC(C)CCCC(C)CCCC(C)(O)C(O)CN(C)C` (centres unmarked) [Compound (16), 1-(dimethylamino)-3,7,11-trimethyl-2,3-dodecanediol]: in data set [1], the inhibition at 10 µM amounted to 48%, the inhibition at 1 µM worked out at 35% and the inhibition at 0.1 µM amounted to 15%.
Take `CCCNCC(O)C(C)(O)CCC=C(C)C` (centres unmarked) [Compound (47)]: in data set [1], the inhibition at 10 µM is 52%, the inhibition at 1 µM stood at 43% and the inhibition at 0.1 µM turned out to be 5%.
For the molecule `CC(C)CCCC(C)CCCC(C)CCCC(C)(O)C(CO)N(C)CCOC(=O)c1cccnc1` (centres unmarked) [Compound (74)], in data set [1], the inhibition at 10 µM turned out to be 43%, the inhibition at 1 µM was found to be 16% and the inhibition at 0.1 µM was found to be 20%.
In the case of `CC(C)=CCCC(C)(O)C(O)CN` (centres unmarked) [Compound (43)], the inhibition at 1 µM in data set [1] was determined as 65%.
Regarding `COc1ccccc1N1CCN(CC(O)C(C)(O)CCCC(C)CCCC(C)C)CC1` (centres unmarked) [Compound (42)], in data set [1], the inhibition at 1 µM came out at 58% and the inhibition at 0.1 µM stood at 35%.
